In patent US9422297B2, “Tricyclic compounds having cytostatic and/or cytotoxic activity and methods of use thereof” (Duquesne University of the Holy Ghost, priority 2007, dated 2016):
Where two headings read alike, the source gives them in different places.

What was measured:
EGFR kinase = EGFR kinase (Homo sapiens (Human), UniProt P00533); experiment: EGFR kinase inhibition; type: biochemical
PDGFR-β kinase = PDGFR-β kinase (Homo sapiens (Human), UniProt P09619); experiment: PDGFR-β kinase inhibition; type: biochemical
Sequence of PDGFR-β kinase (P09619 33-1106): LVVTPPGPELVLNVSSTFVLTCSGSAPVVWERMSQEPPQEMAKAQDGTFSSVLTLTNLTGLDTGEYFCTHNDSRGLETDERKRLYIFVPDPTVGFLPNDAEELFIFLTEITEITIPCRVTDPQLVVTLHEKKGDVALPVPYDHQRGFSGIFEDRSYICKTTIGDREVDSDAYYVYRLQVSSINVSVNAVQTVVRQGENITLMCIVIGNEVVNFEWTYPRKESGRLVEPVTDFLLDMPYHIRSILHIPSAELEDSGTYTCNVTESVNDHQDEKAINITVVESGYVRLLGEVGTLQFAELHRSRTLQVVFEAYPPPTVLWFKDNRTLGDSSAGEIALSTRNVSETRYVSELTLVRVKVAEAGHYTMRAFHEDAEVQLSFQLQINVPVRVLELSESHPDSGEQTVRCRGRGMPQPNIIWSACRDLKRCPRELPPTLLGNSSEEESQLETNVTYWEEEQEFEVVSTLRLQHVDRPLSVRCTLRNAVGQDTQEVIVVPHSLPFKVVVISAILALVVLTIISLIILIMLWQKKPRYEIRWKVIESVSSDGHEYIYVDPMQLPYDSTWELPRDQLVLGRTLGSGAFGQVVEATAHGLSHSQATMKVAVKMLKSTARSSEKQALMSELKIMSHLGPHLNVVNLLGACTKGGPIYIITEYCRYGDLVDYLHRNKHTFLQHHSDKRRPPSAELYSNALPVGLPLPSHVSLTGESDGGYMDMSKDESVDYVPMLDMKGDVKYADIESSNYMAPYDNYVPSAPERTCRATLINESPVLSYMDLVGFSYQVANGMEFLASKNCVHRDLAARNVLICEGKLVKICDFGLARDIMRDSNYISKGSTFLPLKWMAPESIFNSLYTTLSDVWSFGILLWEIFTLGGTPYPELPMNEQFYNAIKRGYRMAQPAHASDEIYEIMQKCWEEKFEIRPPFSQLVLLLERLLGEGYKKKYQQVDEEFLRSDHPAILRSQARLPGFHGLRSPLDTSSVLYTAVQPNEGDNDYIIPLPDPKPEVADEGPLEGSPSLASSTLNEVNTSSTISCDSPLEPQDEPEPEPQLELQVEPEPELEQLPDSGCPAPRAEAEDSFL

A431 cytotoxicity assay = type: cell-based; conditions: human, A431 cells
Flk-1 kinase = Flk-1 kinase (Homo sapiens (Human), UniProt P35968); experiment: Flk-1 kinase inhibition; type: biochemical; conditions: Table 3
Sequence of Flk-1 kinase (P35968 20-1356): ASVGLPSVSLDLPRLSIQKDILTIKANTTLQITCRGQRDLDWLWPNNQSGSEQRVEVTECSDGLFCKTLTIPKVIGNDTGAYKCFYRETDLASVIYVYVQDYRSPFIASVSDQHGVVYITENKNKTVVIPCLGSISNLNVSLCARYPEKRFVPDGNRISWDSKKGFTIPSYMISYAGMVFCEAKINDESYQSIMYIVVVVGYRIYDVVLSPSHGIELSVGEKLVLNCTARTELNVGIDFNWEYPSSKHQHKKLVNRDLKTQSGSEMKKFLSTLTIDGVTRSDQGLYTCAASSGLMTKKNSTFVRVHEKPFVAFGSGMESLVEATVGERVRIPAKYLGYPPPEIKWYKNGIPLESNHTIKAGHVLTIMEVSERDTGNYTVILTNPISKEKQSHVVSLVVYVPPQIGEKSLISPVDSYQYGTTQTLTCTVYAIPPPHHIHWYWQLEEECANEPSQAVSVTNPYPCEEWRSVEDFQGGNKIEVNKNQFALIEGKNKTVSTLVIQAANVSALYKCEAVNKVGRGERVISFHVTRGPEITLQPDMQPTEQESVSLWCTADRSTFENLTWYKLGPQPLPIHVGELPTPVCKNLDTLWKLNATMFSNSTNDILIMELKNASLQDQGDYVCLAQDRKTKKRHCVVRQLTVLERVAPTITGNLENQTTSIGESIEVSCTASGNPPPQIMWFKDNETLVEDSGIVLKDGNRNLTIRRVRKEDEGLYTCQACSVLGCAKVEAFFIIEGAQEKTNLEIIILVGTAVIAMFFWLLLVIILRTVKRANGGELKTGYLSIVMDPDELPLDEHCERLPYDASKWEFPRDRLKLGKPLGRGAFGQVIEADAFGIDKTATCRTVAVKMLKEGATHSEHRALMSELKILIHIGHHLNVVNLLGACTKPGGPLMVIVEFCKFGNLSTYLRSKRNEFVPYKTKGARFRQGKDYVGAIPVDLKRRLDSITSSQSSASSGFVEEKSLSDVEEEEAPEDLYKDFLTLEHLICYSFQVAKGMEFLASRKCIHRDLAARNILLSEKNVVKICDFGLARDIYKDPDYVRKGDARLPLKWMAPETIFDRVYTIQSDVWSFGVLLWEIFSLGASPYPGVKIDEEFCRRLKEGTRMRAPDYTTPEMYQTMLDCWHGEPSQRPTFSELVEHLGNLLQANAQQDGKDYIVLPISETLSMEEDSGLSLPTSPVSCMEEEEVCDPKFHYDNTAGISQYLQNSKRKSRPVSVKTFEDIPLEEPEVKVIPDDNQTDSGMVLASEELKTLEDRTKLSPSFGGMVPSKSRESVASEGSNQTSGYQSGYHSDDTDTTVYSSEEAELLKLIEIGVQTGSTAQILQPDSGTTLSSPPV

VEGFR-2 kinase = VEGFR-2 kinase (Homo sapiens (Human), UniProt P35968); experiment: VEGFR-2 kinase inhibition; type: biochemical; conditions: Table 1
Sequence of VEGFR-2 kinase (P35968 20-1356): as above

Thymidylate synthase [1] = biological target: Thymidylate synthase (Homo sapiens (Human), UniProt P04818); experiment: Thymidylate synthase inhibition, human; type: biochemical; conditions: Human TS
Sequence of Thymidylate synthase (Homo sapiens (Human), UniProt P04818) (P04818 whole entry): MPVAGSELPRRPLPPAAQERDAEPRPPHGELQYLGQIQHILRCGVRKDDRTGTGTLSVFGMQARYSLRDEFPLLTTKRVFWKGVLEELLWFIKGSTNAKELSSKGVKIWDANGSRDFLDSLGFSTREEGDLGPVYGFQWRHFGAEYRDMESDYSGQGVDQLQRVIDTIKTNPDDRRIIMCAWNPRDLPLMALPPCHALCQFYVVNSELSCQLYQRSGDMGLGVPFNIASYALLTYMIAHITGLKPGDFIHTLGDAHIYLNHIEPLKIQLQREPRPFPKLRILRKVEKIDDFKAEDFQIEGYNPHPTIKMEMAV

Thymidylate synthase [2] = biological target: Thymidylate synthase (Escherichia coli (strain K12), UniProt P0A884); experiment: Thymidylate synthase inhibition, E. coli; type: biochemical
Sequence of Thymidylate synthase (Escherichia coli (strain K12), UniProt P0A884) (P0A884 whole entry, looked up): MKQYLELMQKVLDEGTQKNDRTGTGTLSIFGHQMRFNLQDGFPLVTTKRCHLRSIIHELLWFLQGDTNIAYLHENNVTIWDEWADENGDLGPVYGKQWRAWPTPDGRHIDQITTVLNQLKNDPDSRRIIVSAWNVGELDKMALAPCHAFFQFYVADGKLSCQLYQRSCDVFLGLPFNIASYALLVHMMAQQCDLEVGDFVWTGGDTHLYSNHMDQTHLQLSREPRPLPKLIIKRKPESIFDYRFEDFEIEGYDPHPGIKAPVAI

[3] = tested on: COLO-205 metastatic human colon cancer cells; experiment: COLO-205 tumors implanted in athymic mice; type: in vivo
Thymidylate synthase [4] = biological target: Thymidylate synthase (Toxoplasma gondii, UniProt Q07422); experiment: Thymidylate synthase inhibition, Toxo; type: biochemical
CAM angiogenesis = experiment: CAM assay, inhibition of angiogenesis; type: in vivo; conditions: Table 3
[5] = Table 3, read-out: PDGFR-β kinase
[6] = athymic mice, 25 mg/kg 3× weekly

Sequence of EGFR kinase (P00533 25-1210): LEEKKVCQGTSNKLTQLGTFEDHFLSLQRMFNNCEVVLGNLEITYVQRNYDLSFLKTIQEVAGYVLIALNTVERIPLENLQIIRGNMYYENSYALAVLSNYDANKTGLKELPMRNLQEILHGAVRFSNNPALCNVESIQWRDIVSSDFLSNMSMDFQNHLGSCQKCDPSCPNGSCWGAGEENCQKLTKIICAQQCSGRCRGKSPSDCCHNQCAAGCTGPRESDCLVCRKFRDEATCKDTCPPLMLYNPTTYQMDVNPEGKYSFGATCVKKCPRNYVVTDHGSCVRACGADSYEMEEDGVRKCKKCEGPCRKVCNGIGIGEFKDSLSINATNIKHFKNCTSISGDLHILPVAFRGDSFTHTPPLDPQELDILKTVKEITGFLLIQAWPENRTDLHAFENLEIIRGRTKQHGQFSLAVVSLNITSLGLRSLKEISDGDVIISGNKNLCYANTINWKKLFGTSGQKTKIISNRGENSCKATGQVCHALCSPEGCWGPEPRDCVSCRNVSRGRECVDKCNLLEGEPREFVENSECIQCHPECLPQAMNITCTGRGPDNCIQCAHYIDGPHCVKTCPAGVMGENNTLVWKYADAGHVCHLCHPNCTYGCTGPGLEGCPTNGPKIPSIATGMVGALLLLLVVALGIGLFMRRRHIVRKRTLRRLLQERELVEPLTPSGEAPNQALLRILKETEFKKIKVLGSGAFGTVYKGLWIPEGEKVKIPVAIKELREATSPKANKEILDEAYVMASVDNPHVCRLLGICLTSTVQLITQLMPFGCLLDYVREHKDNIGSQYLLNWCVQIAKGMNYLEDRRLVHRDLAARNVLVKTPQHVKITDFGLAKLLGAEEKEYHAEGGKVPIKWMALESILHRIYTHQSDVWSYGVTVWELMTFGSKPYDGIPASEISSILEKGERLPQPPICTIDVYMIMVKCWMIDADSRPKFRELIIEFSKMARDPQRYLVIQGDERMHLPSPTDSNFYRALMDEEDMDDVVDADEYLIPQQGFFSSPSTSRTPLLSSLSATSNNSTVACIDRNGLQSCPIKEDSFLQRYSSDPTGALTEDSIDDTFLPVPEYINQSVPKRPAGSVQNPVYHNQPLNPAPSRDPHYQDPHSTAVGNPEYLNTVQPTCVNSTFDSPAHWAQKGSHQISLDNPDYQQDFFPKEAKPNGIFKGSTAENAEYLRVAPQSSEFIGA

Row | IC50 (EGFR kinase; Table 3, read-out: EGFR kinase) [µM] | IC50 (PDGFR-β kinase; [5]) [µM] | IC50 (Flk-1 kinase) [µM] | Structure (SMILES) | IC50 (A431 cytotoxicity assay; Table 3) [µM] | further results
1 | > 200 | 21.7 | > 200 | CC(C)c1ccccc1Nc1nc(N)nc2c1-c1ccccc1C2 [AAG145-124] | 126 | 
2 | 19.6 | > 500 | 134 | Nc1nc2c(c(Nc3cccc(Cl)c3)n1)-c1ccccc1C2 [AAG145-157] | 235 | 
3 | > 200 | 43.1 | 171 | Nc1nc2c(c(Nc3ccccc3)n1)-c1ccccc1C2 [AAG145-158] | 4.9 | 
4 | > 200 | 75.5 | 43 | COc1cccc(Nc2nc(N)nc3c2-c2ccccc2C3)c1 [AAG145-159] | 13.9 | 
5 | > 200 | 7.1 | 55.7 | Nc1nc2c(c(Nc3cccc(F)c3)n1)-c1ccccc1C2 [AAG145-161] | 9.8 | 
6 |  |  |  | Nc1nc(N)c2c(n1)[nH]c1cccc(Sc3ccccc3)c12 [AAG-148-43, 5-(phenylthio)-9H-pyrimido[4,5-b]indole-2,4-diamine] |  | IC50 (EGFR kinase; Table 1, read-out: EGFR kinase inhibition): 15.1 µM; IC50 (VEGFR-2 kinase): 22.6 µM; IC50 (PDGFR-β kinase; Table 1, read-out: PDGFR-β kinase inhibition): 2.8 µM; IC50 (A431 cytotoxicity assay; Table 1): 49.2 µM; IC50 (Thymidylate synthase [1]): 0.54 µM; IC50 (Thymidylate synthase [2]): > 27 µM; metastasis to the liver of COLO-205 cells [3, 6]: significantly reduced metastasis to the liver; vascularity of COLO-205 primary tumors [3, 6]: reduced vascularity much better than DMBI; primary tumor growth of COLO-205 ([3]; athymic mice, 25 mg/kg three times a week): significantly reduced the growth; apparent toxicity (loss in weight of the animals) ([3]; mice, 25 mg/kg three times weekly): no apparent toxicity
7 |  |  |  | Cc1ccc(Sc2cccc3[nH]c4nc(N)nc(N)c4c23)cc1 [AAG-148-311, 5-[(4-methylphenyl)thio]-9H-pyrimido[4,5-b]indole-2,4-diamine] |  | IC50 (Thymidylate synthase [1]): 0.39 µM; IC50 (Thymidylate synthase [4]): 0.18 µM
8 |  |  |  | Nc1nc2[nH]cc(CCc3ccc(C(=O)N[C@@H](CCC(=O)O)C(=O)O)cc3)c2c(=O)[nH]1 [Pemetrexed, reference compound] |  | IC50 (Thymidylate synthase [1]): 29 µM; IC50 (Thymidylate synthase [2]; E. coli TS, read-out: Thymidylate synthase inhibition E. coli): 15 µM
9 |  |  |  | Cc1cc(C)c(/C=C2\C(=O)Nc3ccccc32)[nH]1 [SU5416, reference compound] | […] | IC50 (CAM angiogenesis): 0.032 ± 0.005 µM

Row | Structure (SMILES) | IC50 (EGFR kinase; Table 3, read-out: EGFR kinase) [µM] | IC50 (PDGFR-β kinase; [5]) [µM] | IC50 (Flk-1 kinase) [µM] | IC50 (A431 cytotoxicity assay; Table 3) [µM] | further results
10 | CC(C)c1ccc(Nc2nc(N)nc3c2-c2ccccc2C3)cc1 [AAG145-126] | 42.6 | 7.8 | 11 | 126 | 
11 | Nc1nc2c(c(Nc3cccc(Br)c3)n1)-c1ccccc1C2 [AAG145-131] | 24.1 | 126 | > 200 | > 5000 | 
12 | Nc1nc2c(c(Nc3ccc(Cl)cc3F)n1)-c1ccccc1C2 [AAG145-135] | 11.7 |  | 197 | 9.7 | 
13 | Nc1nc2c(c(Nc3ccc(F)c(Cl)c3)n1)-c1ccccc1C2 [AAG145-164] | > 200 | 6.4 | 72.9 | 158 | 
